Measured values from patent US20020004209A1, “Use of SLIM3 for binding to molecules” (Schering Aktiengesellschaft Patents, priority 1999, published 2002).

Biological target: T1, androgen receptor (Homo sapiens, UniProt P10275)
T1 construct: expressed in transfected cells; host or cells: 293 cells
T1 sequence (P10275 1-920): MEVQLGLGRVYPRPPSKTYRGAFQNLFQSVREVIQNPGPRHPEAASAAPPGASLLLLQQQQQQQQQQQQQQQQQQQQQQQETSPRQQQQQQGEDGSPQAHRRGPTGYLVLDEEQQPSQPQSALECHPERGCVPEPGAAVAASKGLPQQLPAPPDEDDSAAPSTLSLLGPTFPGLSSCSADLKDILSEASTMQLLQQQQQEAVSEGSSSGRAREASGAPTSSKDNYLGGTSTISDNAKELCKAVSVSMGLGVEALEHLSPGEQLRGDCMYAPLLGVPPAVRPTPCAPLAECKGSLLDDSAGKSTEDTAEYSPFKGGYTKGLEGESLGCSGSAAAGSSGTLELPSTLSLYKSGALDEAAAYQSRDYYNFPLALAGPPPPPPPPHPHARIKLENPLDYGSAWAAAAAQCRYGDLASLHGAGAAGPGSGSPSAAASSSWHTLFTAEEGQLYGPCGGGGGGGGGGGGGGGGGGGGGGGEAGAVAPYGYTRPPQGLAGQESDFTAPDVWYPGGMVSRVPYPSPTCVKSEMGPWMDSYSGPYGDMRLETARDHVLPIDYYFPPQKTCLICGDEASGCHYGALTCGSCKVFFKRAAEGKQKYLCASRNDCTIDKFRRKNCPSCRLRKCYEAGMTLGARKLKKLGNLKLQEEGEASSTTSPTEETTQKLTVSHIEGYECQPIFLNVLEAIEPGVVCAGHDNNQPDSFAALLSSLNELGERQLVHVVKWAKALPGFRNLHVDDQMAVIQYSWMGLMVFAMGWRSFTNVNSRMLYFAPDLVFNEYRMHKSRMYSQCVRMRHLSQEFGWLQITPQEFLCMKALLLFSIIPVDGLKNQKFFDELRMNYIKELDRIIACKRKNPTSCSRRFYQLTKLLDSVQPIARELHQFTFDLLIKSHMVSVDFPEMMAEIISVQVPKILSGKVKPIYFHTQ
T1 sequence (Q14192 1-279 partner): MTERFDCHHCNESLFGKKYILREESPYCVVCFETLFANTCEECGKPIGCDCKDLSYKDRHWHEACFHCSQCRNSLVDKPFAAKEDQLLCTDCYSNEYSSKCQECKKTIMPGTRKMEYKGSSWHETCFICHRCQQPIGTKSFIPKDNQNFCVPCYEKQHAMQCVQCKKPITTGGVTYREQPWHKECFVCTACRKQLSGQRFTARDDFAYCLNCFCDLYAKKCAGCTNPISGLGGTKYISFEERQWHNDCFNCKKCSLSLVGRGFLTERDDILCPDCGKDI
Experiment: androgen receptor co-activation, MMTV-LUC or proteasin-Luc reporter, transient transfection
Type: cell-based
Conditions: 293 cells; androgen receptor-expression-plasmid co-transfected

C[C@]1(O)CC[C@H]2[C@@H]3CCC4=CC(=O)CCC4=C3C=C[C@@]21C [R1881, reference compound]
transactivation of the reporter gene: transactivated
